According to ChEMBL document CHEMBL1150025, “Synthesis of and glycosidase inhibition by -l-homofuconojirimycin” (Bioorg Med Chem Lett, 1993):

Assays:
Clostridium perfringens = test: Percent inhibition against neuraminidase from Type X, Clostridium perfringens at 1 mM concentration
Canavalia ensiformis = test: Percent inhibition against alpha-D-mannosidase from jack bean at 1 mM concentration
[1] = substrate: Cc1cc(=O)oc2cc(OC3O[C@H](C)[C@H](O)[C@H](O)[C@H]3O)ccc12; test: The Michaelis-Menten constant against alpha-L-fucosidase from solubilized human neutrophils was determined

Molecule	inhibition (Clostridium perfringens)	inhibition (Canavalia ensiformis)	Km [1]
C[C@@H]1NC[C@@H](O)[C@H](O)[C@@H]1O	50%	83%	
CC1NC(CO)[C@@H](O)C(O)[C@@H]1O (single isomer, unassigned)	0%	0%	
Plasma alpha-L-fucosidase (Homo sapiens), Q9BTY2 (protein) MRPQELPRLAFPLLLLLLLLLPPPPCPAHSATRFDPTWESLDARQLPAWFDQAKFGIFIHWGVFSVPSFGSEWFWWYWQKEKIPKYVEFMKDNYPPSFKYEDFGPLFTAKFFNANQWADIFQASGAKYIVLTSKHHEGFTLWGSEYSWNWNAIDEGPKRDIVKELEVAIRNRTDLRFGLYYSLFEWFHPLFLEDESSSFHKRQFPVSKTLPELYELVNNYQPEVLWSDGDGGAPDQYWNSTGFLAWLYNESPVRGTVVTNDRWGAGSICKHGGFYTCSDRYNPGHLLPHKWENCMTIDKLSWGYRREAGISDYLTIEELVKQLVETVSCGGNLLMNIGPTLDGTISVVFEERLRQMGSWLKVNGEAIYETHTWRSQNDTVTPDVWYTSKPKEKLVYAIFLKWPTSGQLFLGHPKAILGATEVKLLGHGQPLNWISLEQNGIMVELPQLTIHQMPCKWGWALALTNVI			250 µM
